From patent US20140303092A1 (CHIMERIX, INC., priority 2011, published 2014)

Assay: Study HDP-CDV-201: safety and tolerability (adverse events, laboratory abnormalities, discontinuations)
Assay type: in vivo, human (adult allogeneic HSCT recipients)
Conditions: 40 mg QW
Experimental: Clinical Studies of HDP-CDV were performed and described in detail in the following Examples. For example, HDP-CDV-201 is a placebo-controlled, dose-escalating trial in HSCT CMV (R+) recipients, evaluating the ability of HDP-CDV to prevent or control CMV infection was carried out. Five cohorts were established in which participants or subjects received either placebo or the HDP-CDV orally, in doses ranging from 40 mg weekly (QW) to 200 mg twice weekly (BIW). Subjects who were post-HSCT were enrolled at the time of engraftment and randomized to HDP-CDV or placebo (3 to 1 ratio) and received blinded therapy until approximately 100 day post-transplantation. HDP-CDV doses were 40 mg QW, 100 mg QW, 200 mg QW, 200 mg BIW and 100 mg BIW. Escalation to the next dose was decided by the data monitoring committee after review of the safety data from the previous Cohort. Subjects who developed CMV disease or CMV infection requiring pre-emptive therapy with local standard of care were discontinued from blinded therapy and followed for 4 weeks. Subjects who completed treatment with blinded therapy were followed for 8 weeks post-therapy.
Data from Study HDP-CDV-201 also provided characterization of the safety and tolerability profile of HDP-CDV when administered for the prevention or control of CMV infection in high risk (R^+) post-HSCT adult subjects.
The Safety population (SAFETY) included all randomized subjects who took at least one dose of study treatment. This population was used to summarize safety outcomes based on the treatment actually received, in cases where a subject was treated contrary to the randomization schedule.
The safety and tolerability profile of HDP-CDV, including subject demographics and Baseline characteristics; the AE profile; and laboratory abnormalities of interest were analyzed in the cohorts followed in this investigation.
Subjects completing the treatment period received a full course of study medication; those completing the entire study attended visits through 8 weeks of follow up. Subjects who discontinued treatment may have done so for protocol specified reasons (e.g. development of clinically significant CMV infection requiring preemptive treatment with excluded anti-CMV medications) or for other reasons (e.g., withdrawal, adverse events, loss to follow-up). The disposition of subjects in Study HDP-CDV-201 during the double-blind, placebo-controlled treatment period (through Week 11) is listed by dosing Cohort in TABLE 23.
Adverse events were examined by severity to ensure that all safety signals were identified in this study population. Because of the frequency of events in HSCT recipients, particular attention was given to evaluation of Grade 3 […], 4 (severe), and 5 (fatal) adverse events.
Only those preferred terms for which at least one Grade 3 or higher event was experienced in any treatment group are listed. Cytomegalovirus-related AEs are excluded from this analysis.
HDP-CDV is a lipid conjugate of CDV. Because CDV is known to have adverse effects on renal function and bone marrow, decreased GFR and persistent neutropenia were identified as AEs of special interest. Key renal and hematological (TABLE 30) laboratory parameters were measured and listed below by Study HDP-CDV-201 treatment groups. TABLE 30 includes abnormal levels of serum creatinine, neutrophils, platelets, WBCs, and hemoglobin and includes data at Screening and during the treatment period.
A common metric for unit based dosing of medications is by weight (mg/kg). When the distribution of weights was examined for all subjects participating in the study, the median was 78 kg and the lower 25th percentile weight was approximately 65 kg, which translates to a cut-off of ˜3 mg/kg for a 200 mg total weekly dose. Based upon this approach, a cut-off of 3 mg/kg was used to assess the frequency of diarrhea and associated GI AEs reported for the subjects in Cohorts 3 or 4a (TABLE 40).

## CCCCCCCCCCCCCCCCOCCCOP(=O)(O)COC(CO)Cn1ccc(N)nc1=O (stereo not drawn) [HDP-CDV]
  TEAE ALT increased, Frequency: 2 (8.0%)
  TEAE ALT increased, Grade 2: 1 (4.0%)
  TEAE ALT increased, Grade 3: 1 (4.0%)
  TEAE ALT increased, Grade 4: 0
  TEAE ALT increased, Grade 5: 0
  TEAE AML, Recurrent, Frequency: 3 (12.0%)
  TEAE AML, Recurrent, Grade 2: 0
  TEAE AML, Recurrent, Grade 3: 0
  TEAE AML, Recurrent, Grade 4: 1 (4.0%)
  TEAE AML, Recurrent, Grade 5: 0
  TEAE AST increased, Frequency: 1 (4.0%)
  TEAE AST increased, Grade 2: 0
  TEAE AST increased, Grade 3: 1 (4.0%)
  TEAE AST increased, Grade 4: 0
  TEAE AST increased, Grade 5: 0
  TEAE Abdominal pain, Frequency: 4 (16.0%)
  TEAE Abdominal pain, Grade 2: 0
  TEAE Abdominal pain, Grade 3: 1 (4.0%)
  TEAE Abdominal pain, Grade 4: 0
  TEAE Abdominal pain, Grade 5: 0
  TEAE Acute GVHD, Frequency: 6 (24.0%)
  TEAE Acute GVHD, Grade 2: 2 (8.0%)
  TEAE Acute GVHD, Grade 3: 1 (4.0%)
  TEAE Arthralgias, Frequency: 0
  TEAE Arthralgias, Grade 2: 0
  TEAE Arthralgias, Grade 3: 0
  TEAE Arthralgias, Grade 4: 0
  TEAE Arthralgias, Grade 5: 0
  TEAE Back Pain, Frequency: 0
  TEAE Back Pain, Grade 2: 0
  TEAE Back Pain, Grade 3: 0
  TEAE Back Pain, Grade 4: 0
  TEAE Back Pain, Grade 5: 0
  TEAE Decreased appetite, Frequency: 4 (16.0%)
  TEAE Decreased appetite, Grade 2: 1 (4.0%)
  TEAE Decreased appetite, Grade 3: 1 (4.0%)
  TEAE Decreased appetite, Grade 4: 0
  TEAE Decreased appetite, Grade 5: 0
  TEAE Diarrhea, Frequency: 3 (12.0%)
  TEAE Diarrhea, Grade 2: 2 (8.0%)
  TEAE Diarrhea, Grade 3: 0
  TEAE Diarrhea, Grade 4: 0
  TEAE Diarrhea, Grade 5: 0
  TEAE Fatigue, Frequency: 1 (4.0%)
  TEAE Fatigue, Grade 2: 0
  TEAE Fatigue, Grade 3: 0
  TEAE Fatigue, Grade 4: 0
  TEAE Fatigue, Grade 5: 0
  TEAE GGT Increased, Frequency: 0
  TEAE GGT Increased, Grade 2: 0
  TEAE GGT Increased, Grade 3: 0
  TEAE GGT Increased, Grade 4: 0
  TEAE GGT Increased, Grade 5: 0
  TEAE Generalized oedema, Frequency: 1 (4.0%)
  TEAE Generalized oedema, Grade 2: 1 (4.0%)
  TEAE Generalized oedema, Grade 3: 0
  TEAE Generalized oedema, Grade 4: 0
  TEAE Generalized oedema, Grade 5: 0
  TEAE Hyperbilirubinaemia, Frequency: 1 (4.0%)
  TEAE Hyperbilirubinaemia, Grade 2: 0
  TEAE Hyperbilirubinaemia, Grade 3: 0
  TEAE Hyperbilirubinaemia, Grade 4: 1 (4.0%)
  TEAE Hyperbilirubinaemia, Grade 5: 0
  TEAE Hyperglycaemia, Frequency: 1 (4.0%)
  TEAE Hyperglycaemia, Grade 2: 1 (4.0%)
  TEAE Hyperglycaemia, Grade 3: 0
  TEAE Hyperglycaemia, Grade 4: 0
  TEAE Hyperglycaemia, Grade 5: 0
  TEAE Hyperkalemia, Frequency: 1 (4.0%)
  TEAE Hyperkalemia, Grade 2: 0
  TEAE Hyperkalemia, Grade 3: 0
  TEAE Hyperkalemia, Grade 4: 0
  TEAE Hyperkalemia, Grade 5: 0
  TEAE Hypocalcaemia, Frequency: 1 (4.0%)
  TEAE Hypocalcaemia, Grade 2: 1 (4.0%)
  TEAE Hypocalcaemia, Grade 3: 0
  TEAE Hypocalcaemia, Grade 4: 0
  TEAE Hypocalcaemia, Grade 5: 0
  TEAE Hypokalaemia, Frequency: 4 (16.0%)
  TEAE Hypokalaemia, Grade 2: 0
  TEAE Hypokalaemia, Grade 3: 2 (8.0%)
  TEAE Hypokalaemia, Grade 4: 0
  TEAE Hypokalaemia, Grade 5: 0
  TEAE Hyponatraemia, Frequency: 3 (12.0%)
  TEAE Hyponatraemia, Grade 2: 1 (4.0%)
  TEAE Hyponatraemia, Grade 3: 1 (4.0%)
  TEAE Hyponatraemia, Grade 4: 0
  TEAE Hyponatraemia, Grade 5: 0
  TEAE LFT Abnormal, Frequency: 0
  TEAE LFT Abnormal, Grade 2: 0
  TEAE LFT Abnormal, Grade 3: 0
  TEAE LFT Abnormal, Grade 4: 0
  TEAE LFT Abnormal, Grade 5: 0
  TEAE Leukocytosis, Frequency: 1 (4.0%)
  TEAE Leukocytosis, Grade 2: 0
  TEAE Leukocytosis, Grade 3: 0
  TEAE Leukocytosis, Grade 4: 0
  TEAE Leukocytosis, Grade 5: 0
  TEAE Nausea, Frequency: 6 (24.0%)
  TEAE Nausea, Grade 2: 2 (8.0%)
  TEAE Nausea, Grade 3: 1 (4.0%)
  TEAE Nausea, Grade 4: 0
  TEAE Nausea, Grade 5: 0
  TEAE Neutropenia, Frequency: 2 (8.0%)
  TEAE Neutropenia, Grade 2: 0
  TEAE Neutropenia, Grade 3: 2 (8.0%)
  TEAE Neutropenia, Grade 4: 0
  TEAE Neutropenia, Grade 5: 0
  TEAE Pneumonia, Frequency: 1 (4.0%)
  TEAE Pneumonia, Grade 2: 0
  TEAE Pneumonia, Grade 3: 0
